In US20230057861A1, “USE OF CORYDALIS SAXICOLA BUNTING AND FORMULATION THEREOF IN PREPARATION OF DRUG FOR TREATING NON-ALCOHOLIC FATTY LIVER DISEASES” (NANJING ZHONGSHAN PHARMACEUTICAL CO., LTD., priority 2020, published 2023):

Test system: HFD-fed mice
Test: Liver histopathology, HE staining
Assay type: in vivo, C57BL/6J mice
Conditions: metformin group (200 mg/kg), gavage 5 weeks, FIG. 5
Experimental: 1.4 Experimental method: After adaptive feeding for one week, 35 four-week-old male C57BL/6 mice were randomized into 2 initial groups, fed with a normal chow or a high-fat (60% fat) high-sugar (20% fructose) chow. […] During modeling, the mice were given ad libitum access to food and water at room temperature of 23-25° C. in an animal laboratory. The proper temperature and the 12-hour day-night cycle were maintained. From week 11, the mice in each group were dosed by gavage for 5 weeks, and its weight was measured once a week. 4.1.1 Experimental method: Fresh liver tissue was collected and fixed in 4% neutral formalin buffer for 24 h, and then dehydrated. The tissue blocks were trimmed, processed, and embedded in paraffin. The tissue in glass slides were cut to the thickness of 5 μm and treated with HE staining.

## CN(C)C(=N)N=C(N)N [metformin]
  hepatocyte swelling, steatosis, sparse cytoplasm (HE staining): significantly relieved
